Measured values published in patent US10196588B2, “Detergent formulation for dishwashing machine” (Universiti Putra Malaysia (UPM), priority 2012, dated 2019).

What was measured:
[1] = Resulting pH of the alkalinity agents in solution; type: physicochemical; details: resulting pH of the alkalinity agent in solution
[2] = system: T1 lipase; assay: Lipase stability test: residual activity of T1 lipase after incubation with detergent components; type: biochemical, Geobacillus zalihae strain T1; details: for Stability of T1 lipase in the component (in words): incubation in 0.2% (w/v) component, 60° C., 30 min
Experimental: The compatibility of the T1 lipase with the other components of the formulated detergent was evaluated by incubating the enzyme in 0.2% (w/v) of those components, i.e., surfactants, bleaches, and alkalinity agents in a water bath (Protech, Malaysia) at 60° C. for 30 min. After 30 min, the enzyme was assayed for its residual activity.
J Am Oil Chem Soc. 63(1): p. 89-92]. A cupric acetate pyridine reagent was prepared by mixing 5% (w/v) copper (II) acetate with DI water and adjusting the solution pH to 6.1 with pyridine. The substrate emulsion used consisted of olive oil/50 mM of Glycine-NaOH buffer at pH 9.0 (1:1), which was homogenized using a homogenizer (Heidolph, Germany). […] After 30 min, the reaction was stopped by adding 5 ml isooctane and 1 ml 6 N HCl, and the mixture was vortexed for 30 s and left for 15 min. 4 ml of the upper layer of the mixture, which contained the fatty acids, was transferred to a test tube containing 1 ml of the cupric acetate pyridine reagent, and the mixture was vortexed for 30 s and left for 1 hour. The color of the solution was then evaluated colorimetrically by reading the OD using the Ultraspec 2100 Pro spectrophotometer (Amersham Bioscience, Sweden) at 715 nm. All assays were done in triplicates. 1 unit (U) of lipase activity was defined as the rate of 1 μmol of fatty acid released per minute under standard assay conditions.

[3] = T1 lipase residual activity after 30 min at 60° C. in 0.2% (w/v) alkalinity agent, Glycine-NaOH control = 100
[4] = T1 lipase residual activity after 30 min at 60° C. in 0.2% (w/v) surfactant or bleach, w/o control = 100

Molecule | pH [1] | Relative activity (%) [2, 3] [%] | Stability of T1 lipase in the component (in words) [2] | Stability of T1 lipase in the component (in words) ([2]; listed as carbonate) | Relative activity (%) [2, 4] [%]
O=C([O-])[O-].[Na+].[Na+] [Sodium carbonate, sodium carbonate] | 10.84 | 1 | lowest residual activities | greatly destabilized | 
Polyethylene glycol 300 [PEG 300] |  |  |  |  | 61
sodium perborate |  |  | strongly destabilized |  | 3.4
O=C([O-])CC(O)(CC(=O)[O-])C(=O)[O-].[Na+].[Na+].[Na+] [Sodium citrate, sodium citrate] | 8.30 | 48 | did not greatly affect the stability |  | 
CCCCCCCC/C=C\CCCCCCCC(=O)OCCOCC(OCCO)C1OCC(OCCO)C1OCCO (centres unmarked) [Tween 80, polysorbate 80] |  |  | highest stability |  | 98
O=C([O-])O.[Na+] [Sodium bicarbonate, sodium bicarbonate] | 8.63 | 94 |  |  | 
CCCCCCCCCCCCOS(=O)(=O)[O-].[Na+] [SDS, sodium dodecyl sulfate] |  |  | destabilized |  | 14
O=P(O)(O)OP(=O)(O)OP(=O)(O)O [Sodium tripolyphosphate, sodium tripolyphosphate] | 9.60 | 0 | lowest residual activities |  | 
O=C([O-])[O-].O=C([O-])[O-].OO.OO.OO.[Na+].[Na+].[Na+].[Na+] [Sodium percarbonate, sodium percarbonate] |  |  | strongly destabilized |  | 0.3
CCCCCCCCCCCCCCCC[N+](C)(C)C.[Br-] [CTAB, cetyl trimethylammonium bromide] |  |  | strongly destabilized |  | 1.9
